Measured values published in patent US11738053B2, “Methods and compositions for treating chronic granulomatous disease” (THE BOARD OF REGENTS OF THE UNIVERSITY OF TEXAS SYSTEM, priority 2016, dated 2023).

What was measured:
[1] = without irradiation and chemotherapy; cited from earlier work
[2] = test system: NADPH oxidase in K562 cells; experiment: Superoxide generation (Diogenes luminescence) in K562 cells reconstituted with gp91^phox vectors; assay type: cell-based; conditions: K562 cells stably expressing human p47^phox and p67^phox, transfected 48 h before measurement
Experimental: FIG. 15. The gp91^phox (T196F) mutant is superactive compared with wild-type. A cellular luminescence enhancement system for superoxide detection (Diogenes, National Diagnostics) was used. Human p47^phox and p67^phox stably expressing K562 cells were transfected with either wild-type human gp91^phox vector, gp91^phox (T196F) vector, or empty vector pcDNA 3.1 48 h before measurement. K562 cells constitutively express p22^phox and Rac. The experiment shown is representative of 3 studies.
In a structure/function study of gp91^phox, a super-active variant of gp91^phox (T196F) was generated in which residue 196 is mutated from threonine to phenylalanine (FIG. 15). PMA-stimulated superoxide generation was 7-fold greater when gp91^phox(T196F), versus wild-type gp91^phox, was used to reconstitute the NADPH oxidase in K562 cells. The mutant construct was made by Quik-Change™ site-directed mutagenesis of gp91^phox using sense primer […] (SEQ ID NO:1) and antisense primer […] (SEQ ID NO:2). The construct was sequenced and subcloned into fresh pcDNA3.1 (−) using NheI and XhoI.

c1cc(CN2CCCNCCNCCCNCC2)ccc1CN1CCCNCCNCCCNCC1 [AMD3100]
effectiveness as conditioning regimen [1]: not to be sufficiently effective

B1: gp91^phox(T196F): super-active variant of gp91^phox in which residue 196 is mutated from threonine to phenylalanine (protein, UniProt P04839 2-570, looked up, variant T196F)
NADPH oxidase 2: GNWAVNEGLSIFVILVWLGLNVFLFVWYYRVYDIPPKFFYTRKLLGSALALARAPAACLNFNCMLILLPVCRNLLSFLRGSSACCSTRVRRQLDRNLTFHKMVAWMIALHSAIHTIAHLFNVEWCVNARVNNSDPYSVALSELGDRQNESYLNFARKRIKNPEGGLYLAVTLLAGITGVVITLCLILIITSSTKFIRRSYFEVFWYTHHLFVIFFIGLAIHGAERIVRGQTAESLAVHNITVCEQKISEWGKIKECPIPQFAGNPPMTWKWIVGPMFLYLCERLVRFWRSQQKVVITKVVTHPFKTIELQMKKKGFKMEVGQYIFVKCPKVSKLEWHPFTLTSAPEEDFFSIHIRIVGDWTEGLFNACGCDKQEFQDAWKLPKIAVDGPFGTASEDVFSYEVVMLVGAGIGVTPFASILKSVWYKYCNNATNLKLKKIYFYWLCRDTHAFEWFADLLQLLESQMQERNNAGFLSYNIYLTGWDESQANHFAVHHDEEKDVITGLKQKTLYGRPNWDNEFKTIASQHPNTRIGVFLCGPEALAETLSKQSISNSESGPRGVHFIFNKENF
PMA-stimulated superoxide generation relative to wild-type gp91^phox [2]: 7 fold
